#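 Tested at 5 concentrations; 48 h exposure; 96-well plates; endpoints linearly interpolated, else capped at highest concentration. At the GI50, growth is halved. TGI denotes the concentration required for complete inhibition of growth.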
# Assays:
# Assay in all cases: inhibition of tumour cell growth, NCI panel, 48 h
# U251 CNS = test system: U251 CNS
# MCF7 breast = test system: MCF7 breast
# SF-539 CNS = test system: SF-539 CNS
# SR leukemia = test system: SR leukemia
# MOLT-4 leukemia = test system: MOLT-4 leukemia
# SNB-75 CNS = test system: SNB-75 CNS
# TK-10 renal = test system: TK-10 renal
# SK-MEL-2 melanoma = test system: SK-MEL-2 melanoma
# PC-3 prostate = test system: PC-3 prostate
# CCRF-CEM leukemia = test system: CCRF-CEM leukemia
# SW-620 colon = test system: SW-620 colon
# OVCAR-4 ovarian = test system: OVCAR-4 ovarian
# A549 NSCLC = test system: A549 NSCLC
# RXF 393 renal = test system: RXF 393 renal
# CAKI-1 renal = test system: CAKI-1 renal
# NCI/ADR-RES ovarian = test system: NCI/ADR-RES ovarian
# UO-31 renal = test system: UO-31 renal
# HOP-92 NSCLC = test system: HOP-92 NSCLC
# UACC-62 melanoma = test system: UACC-62 melanoma
# K-562 leukemia = test system: K-562 leukemia
# SF-268 CNS = test system: SF-268 CNS
# HCT-15 colon = test system: HCT-15 colon
# SNB-19 CNS = test system: SNB-19 CNS
# NCI-H460 lung = test system: NCI-H460 lung
# EKVX NSCLC = test system: EKVX NSCLC
# OVCAR-5 ovarian = test system: OVCAR-5 ovarian
# MALME-3M melanoma = test system: MALME-3M melanoma
# SN12C renal = test system: SN12C renal
# RPMI-8226 leukemia = test system: RPMI-8226 leukemia
# UACC-257 melanoma = test system: UACC-257 melanoma
# HS 578T breast = test system: HS 578T breast
# SK-OV-3 ovarian = test system: SK-OV-3 ovarian
# NCI-H522 lung = test system: NCI-H522 lung
# LOX IMVI melanoma = test system: LOX IMVI melanoma
# DU-145 prostate = test system: DU-145 prostate
# HCT-116 colon = test system: HCT-116 colon
# MDA-MB-435 = test system: MDA-MB-435
# 786-0 renal = test system: 786-0 renal
# SK-MEL-5 melanoma = test system: SK-MEL-5 melanoma
# HT29 colon = test system: HT29 colon
# HOP-62 NSCLC = test system: HOP-62 NSCLC
# SF-295 CNS = test system: SF-295 CNS
# SK-MEL-28 melanoma = test system: SK-MEL-28 melanoma
# A498 renal = test system: A498 renal
# M14 melanoma = test system: M14 melanoma
# OVCAR-8 ovarian = test system: OVCAR-8 ovarian
# ACHN renal = test system: ACHN renal
# T-47D breast = test system: T-47D breast
# NCI-H23 lung = test system: NCI-H23 lung
# COLO 205 colon = test system: COLO 205 colon
# NCI-H226 lung = test system: NCI-H226 lung
# HCC-2998 colon = test system: HCC-2998 colon
# MDA-MB-231 breast = test system: MDA-MB-231 breast
# OVCAR-3 ovarian = test system: OVCAR-3 ovarian
# IGROV1 ovarian = test system: IGROV1 ovarian
# BT-549 breast = test system: BT-549 breast
# KM12 colon = test system: KM12 colon
smiles,measurement,setting,value
N#Cc1c(-c2ccccc2)cc(-c2ccccc2)n(CC(=O)NO)c1=O,GI50,U251 CNS,4.91 µM
same,TGI,U251 CNS,86.3 µM
same,GI50,MCF7 breast,1.45 µM
same,TGI,MCF7 breast,3.82 µM
same,GI50,SF-539 CNS,3.83 µM
same,TGI,SF-539 CNS,25.7 µM
same,GI50,SR leukemia,0.593 µM
same,TGI,SR leukemia,4.48 µM
same,GI50,MOLT-4 leukemia,1.7 µM
same,TGI,MOLT-4 leukemia,4.92 µM
same,GI50,SNB-75 CNS,1.61 µM
same,TGI,SNB-75 CNS,6.36 µM
same,GI50,TK-10 renal,5.92 µM
same,TGI,TK-10 renal,> 100 µM
same,GI50,SK-MEL-2 melanoma,2.85 µM
same,TGI,SK-MEL-2 melanoma,9.13 µM
same,GI50,PC-3 prostate,2.25 µM
same,TGI,PC-3 prostate,14 µM
same,GI50,CCRF-CEM leukemia,0.491 µM
same,TGI,CCRF-CEM leukemia,3.07 µM
same,GI50,SW-620 colon,8.87 µM
same,TGI,SW-620 colon,> 100 µM
same,GI50,OVCAR-4 ovarian,3.53 µM
same,TGI,OVCAR-4 ovarian,> 100 µM
same,GI50,A549 NSCLC,4.57 µM
same,TGI,A549 NSCLC,> 100 µM
same,GI50,RXF 393 renal,1.61 µM
same,TGI,RXF 393 renal,5.92 µM
same,GI50,CAKI-1 renal,3.4 µM
same,TGI,CAKI-1 renal,> 100 µM
same,GI50,NCI/ADR-RES ovarian,3.41 µM
same,TGI,NCI/ADR-RES ovarian,> 100 µM
same,GI50,UO-31 renal,1.84 µM
same,TGI,UO-31 renal,9.75 µM
same,GI50,HOP-92 NSCLC,2.15 µM
same,TGI,HOP-92 NSCLC,8.17 µM
same,GI50,UACC-62 melanoma,2.25 µM
same,TGI,UACC-62 melanoma,6.01 µM
same,GI50,K-562 leukemia,1.8 µM
same,TGI,K-562 leukemia,4.67 µM
same,GI50,SF-268 CNS,3.66 µM
same,TGI,SF-268 CNS,94.3 µM
same,GI50,HCT-15 colon,3.55 µM
same,TGI,HCT-15 colon,28.8 µM
same,GI50,SNB-19 CNS,7.09 µM
same,TGI,SNB-19 CNS,73.3 µM
same,GI50,NCI-H460 lung,3.02 µM
same,TGI,NCI-H460 lung,> 100 µM
same,GI50,EKVX NSCLC,3.45 µM
same,TGI,EKVX NSCLC,97 µM
same,GI50,OVCAR-5 ovarian,11.1 µM
same,TGI,OVCAR-5 ovarian,> 100 µM
same,GI50,MALME-3M melanoma,3 µM
same,TGI,MALME-3M melanoma,27.3 µM
same,GI50,SN12C renal,4.27 µM
same,TGI,SN12C renal,> 100 µM
same,GI50,RPMI-8226 leukemia,1.35 µM
same,TGI,RPMI-8226 leukemia,4.77 µM
same,GI50,UACC-257 melanoma,10.8 µM
same,TGI,UACC-257 melanoma,37.4 µM
same,GI50,HS 578T breast,2 µM
same,TGI,HS 578T breast,7.15 µM
same,GI50,SK-OV-3 ovarian,6.24 µM
same,TGI,SK-OV-3 ovarian,53.5 µM
same,GI50,NCI-H522 lung,0.427 µM
same,TGI,NCI-H522 lung,1.82 µM
same,GI50,LOX IMVI melanoma,0.176 µM
same,TGI,LOX IMVI melanoma,0.333 µM
same,GI50,DU-145 prostate,6.37 µM
same,TGI,DU-145 prostate,> 100 µM
same,GI50,HCT-116 colon,2.57 µM
same,TGI,HCT-116 colon,> 100 µM
same,GI50,MDA-MB-435,3.03 µM
same,TGI,MDA-MB-435,> 100 µM
same,GI50,786-0 renal,5.59 µM
same,TGI,786-0 renal,28 µM
same,GI50,SK-MEL-5 melanoma,1.93 µM
same,TGI,SK-MEL-5 melanoma,4.71 µM
same,GI50,HT29 colon,3.07 µM
same,TGI,HT29 colon,12.2 µM
same,GI50,HOP-62 NSCLC,6.99 µM
same,TGI,HOP-62 NSCLC,58.3 µM
same,GI50,SF-295 CNS,7.47 µM
same,TGI,SF-295 CNS,33.8 µM
same,GI50,SK-MEL-28 melanoma,6.7 µM
same,TGI,SK-MEL-28 melanoma,77.4 µM
same,GI50,A498 renal,2.17 µM
same,TGI,A498 renal,7.99 µM
same,GI50,M14 melanoma,4.16 µM
same,TGI,M14 melanoma,19.1 µM
same,GI50,OVCAR-8 ovarian,8.02 µM
same,TGI,OVCAR-8 ovarian,> 100 µM
same,GI50,ACHN renal,1.09 µM
same,TGI,ACHN renal,> 100 µM
same,GI50,T-47D breast,1.41 µM
same,TGI,T-47D breast,6.88 µM
same,GI50,NCI-H23 lung,3.58 µM
same,TGI,NCI-H23 lung,81.4 µM
same,GI50,COLO 205 colon,5.62 µM
same,TGI,COLO 205 colon,72.3 µM
same,GI50,NCI-H226 lung,13.7 µM
same,TGI,NCI-H226 lung,57.5 µM
same,GI50,HCC-2998 colon,3.74 µM
same,TGI,HCC-2998 colon,20.9 µM
same,GI50,MDA-MB-231 breast,4.75 µM
same,TGI,MDA-MB-231 breast,68 µM
O=C(CNc1cccc(Cl)c1)Nn1c(-c2ccccc2)nc2ccccc2c1=O,TGI,U251 CNS,3.41 µM
same,TGI,MCF7 breast,4.32 µM
same,TGI,SF-539 CNS,13.6 µM
same,TGI,SR leukemia,> 100 µM
same,TGI,OVCAR-3 ovarian,21.1 µM
same,TGI,MOLT-4 leukemia,8.62 µM
same,TGI,SNB-75 CNS,13.8 µM
same,TGI,IGROV1 ovarian,17.9 µM
same,TGI,PC-3 prostate,22.9 µM
same,TGI,CCRF-CEM leukemia,8.73 µM
same,TGI,SW-620 colon,7.37 µM
same,TGI,OVCAR-4 ovarian,19.3 µM
same,TGI,A549 NSCLC,46.4 µM
same,TGI,UO-31 renal,31 µM
same,TGI,HOP-92 NSCLC,7.45 µM
same,TGI,UACC-62 melanoma,7.83 µM
same,TGI,K-562 leukemia,18.1 µM
same,TGI,SF-268 CNS,22.9 µM
same,TGI,SNB-19 CNS,31.6 µM
same,TGI,BT-549 breast,3.95 µM
same,TGI,NCI-H460 lung,29.2 µM
same,TGI,EKVX NSCLC,34.4 µM
same,TGI,OVCAR-5 ovarian,32.8 µM
same,TGI,SN12C renal,13.6 µM
same,TGI,RPMI-8226 leukemia,> 100 µM
same,TGI,UACC-257 melanoma,42.2 µM
same,TGI,HS 578T breast,65 µM
same,TGI,SK-OV-3 ovarian,23.7 µM
same,TGI,NCI-H522 lung,2.98 µM
same,TGI,LOX IMVI melanoma,2.74 µM
same,TGI,DU-145 prostate,44.9 µM
same,TGI,HCT-116 colon,4.07 µM
same,TGI,MDA-MB-435,15.2 µM
same,TGI,786-0 renal,7.24 µM
same,TGI,SK-MEL-5 melanoma,2.88 µM
same,TGI,KM12 colon,24.9 µM
same,TGI,HT29 colon,24.9 µM
same,TGI,HOP-62 NSCLC,30.8 µM
same,TGI,SF-295 CNS,28.5 µM
same,TGI,SK-MEL-28 melanoma,29.9 µM
same,TGI,A498 renal,43.5 µM
same,TGI,M14 melanoma,6.19 µM
same,TGI,OVCAR-8 ovarian,> 100 µM
same,TGI,ACHN renal,26.5 µM
same,TGI,NCI-H23 lung,8.11 µM
same,TGI,COLO 205 colon,20.2 µM
same,TGI,NCI-H226 lung,35.3 µM
same,TGI,HCC-2998 colon,23.9 µM
same,TGI,MDA-MB-231 breast,10.8 µM
